# Laboratory results taken from US11339419B2, “Scavenger protein(s) for improved preservation of analyte detection sensor(s) and method(s) of use thereof” (Siemens Healthcare Diagnostics Inc., priority 2017, dated 2022).
# Values joined by “and” are separate entries in the source; they are usually repeats but may differ in a detail not shown here. Equal entries are not always repeated.
# Test system: creatininase (BBI Solutions)
# Test: BBI Solutions Creatininase Enzyme Absorbance with BSA and MIT
# Type: biochemical
# [1] = Day 0, 5 mg/mL BSA, no MIT (row of 50 ppm MIT)
# [2] = Day 0, 5 mg/mL BSA, no MIT (row of 100 ppm MIT)
# [3] = Day 0, 25 mg/mL BSA, no MIT (row of 50 ppm MIT)
# [4] = Day 0, 25 mg/mL BSA, no MIT (row of 100 ppm MIT)
# [5] = Day 0, 50 mg/mL BSA, no MIT (row of 50 ppm MIT)
# [6] = Day 0, 50 mg/mL BSA, no MIT (row of 100 ppm MIT)
# [7] = Day 0, 50 ppm MIT, 25 mg/mL BSA
# [8] = Day 0, 50 ppm MIT, 50 mg/mL BSA
# [9] = Day 4, 5 mg/mL BSA, no MIT (row of 50 ppm MIT)
# [10] = Day 4, 5 mg/mL BSA, no MIT (row of 100 ppm MIT)
# [11] = Day 4, 25 mg/mL BSA, no MIT (row of 50 ppm MIT)
# [12] = Day 4, 25 mg/mL BSA, no MIT (row of 100 ppm MIT)
# [13] = Day 4, 50 mg/mL BSA, no MIT (row of 50 ppm MIT)
# [14] = Day 4, 50 mg/mL BSA, no MIT (row of 100 ppm MIT)
# [15] = Day 14, 5 mg/mL BSA, no MIT (row of 50 ppm MIT)
# [16] = Day 14, 5 mg/mL BSA, no MIT (row of 100 ppm MIT)
# [17] = Day 14, 25 mg/mL BSA, no MIT (row of 50 ppm MIT)
# [18] = Day 14, 25 mg/mL BSA, no MIT (row of 100 ppm MIT)
# [19] = Day 14, 50 mg/mL BSA, no MIT (row of 50 ppm MIT)
# [20] = Day 14, 50 mg/mL BSA, no MIT (row of 100 ppm MIT)
# Description: Table 5-8 depict aqueous solutions comprising varying concentrations of BSA (at concentrations of 0 mg/mL, 5 mg/mL, 25 mg/mL, and 50 mg/mL), varying concentrations of MIT (at concentrations of 50 parts per million and 100 parts per million) or Proclin™ 300 (at concentrations of 0.7% and 1.4%) biocide over a particular time period (measurements were taken at days 0, 4, and 14 after exposure of the enzyme(s) to the particular aqueous solutions) and the associated enzyme absorbance measurements for creatininase (commercially offered for sale by BBI Solutions and Toyobo). Absorbance measurements of the creatininase enzyme(s) were taken via spectrophotometer for each aqueous solution (represented as columns 1-5 in Tables 5-8—column 6 is a blank), the absorbance being directly proportional to the enzyme activity being measured-which for Tables 5-8 is creatininase enzyme activity. Accordingly, the higher the absorbance measurement, the higher the enzyme activity of creatininase. Columns 7-11 represent five replicate readings in which the solution only contains BSA (i.e., there is no biocide(s) present in the solution). In addition, the mean values, standard deviations, and coefficients of variation are all presented for the enzyme activity/absorbance of each aqueous solution. All measurements were taken at 37° C.
# As depicted in Table 5, creatininase (commercially offered for sale by BBI Solutions) enzyme activity is measured against various concentrations of MIT (biocide) and BSA (scavenger protein) over a period of 14 days (with absorbance measurement taken at 0, 4, and 14 days) for five different aqueous solutions (represented as columns 1-5—column 6 is a blank).
substance,measurement,setting,value
bovine serum albumin [BSA],"Creatininase Enzyme Absorbance, columns 7-11",[1],0.717 and 0.707 and 0.75 and 0.728
same,MEAN (columns 7-11),[1],0.51
same,"Creatininase Enzyme Absorbance, columns 7-11",[2],0.767 and 0.759 and 0.781 and 0.761 and 0.773
same,MEAN (columns 7-11),[2],0.56
same,"Creatininase Enzyme Absorbance, columns 7-11",[3],0.736 and 0.712 and 0.709 and 0.752 and 0.746
same,MEAN (columns 7-11),[3],0.52
same,"Creatininase Enzyme Absorbance, columns 7-11",[4],0.688 and 0.694 and 0.72 and 0.733 and 0.705
same,MEAN (columns 7-11),[4],0.50
same,"Creatininase Enzyme Absorbance, columns 7-11",[5],0.759 and 0.723 and 0.742 and 0.773 and 0.777
same,MEAN (columns 7-11),[5],0.54
same,"Creatininase Enzyme Absorbance, columns 7-11",[6],0.661 and 0.68 and 0.708 and 0.702 and 0.686
same,MEAN (columns 7-11),[6],0.48
same,% Bias,"Day 0, 50 ppm MIT vs no MIT, 5 mg/mL BSA",6.0%
same,% Bias,"Day 0, 50 ppm MIT vs no MIT, 25 mg/mL BSA",4.8%
same,% Bias,"Day 0, 50 ppm MIT vs no MIT, 50 mg/mL BSA",3.6%
same,Creatininase Enzyme Absorbance,"Day 0, 50 ppm MIT, 5 mg/mL BSA",0.774 and 0.737 and 0.726 and 0.733 and 0.74
same,MEAN,"Day 0, 50 ppm MIT, 5 mg/mL BSA",0.54
same,Creatininase Enzyme Absorbance,[7],0.751 and 0.713 and 0.818 and 0.733
same,MEAN,[7],0.54
same,Creatininase Enzyme Absorbance,[8],0.773
same,MEAN,[8],0.56
same,% Bias,"Day 0, 100 ppm MIT vs no MIT, 5 mg/mL BSA",6.8%
same,% Bias,"Day 0, 100 ppm MIT vs no MIT, 25 mg/mL BSA",8.0%
same,% Bias,"Day 0, 100 ppm MIT vs no MIT, 50 mg/mL BSA",3.7%
same,MEAN,"Day 0, 100 ppm MIT, 5 mg/mL BSA",0.59
same,MEAN,"Day 0, 100 ppm MIT, 25 mg/mL BSA",0.54
same,MEAN,"Day 0, 100 ppm MIT, 50 mg/mL BSA",0.49
same,"Creatininase Enzyme Absorbance, columns 7-11",[9],0.95 and 0.906 and 0.917 and 0.926 and 0.911
same,MEAN (columns 7-11),[9],0.71
same,"Creatininase Enzyme Absorbance, columns 7-11",[10],0.927 and 0.89 and 0.906 and 0.925 and 0.892
same,MEAN (columns 7-11),[10],0.69
same,"Creatininase Enzyme Absorbance, columns 7-11",[11],0.821 and 0.794 and 0.77 and 0.793
same,MEAN (columns 7-11),[11],0.59
same,"Creatininase Enzyme Absorbance, columns 7-11",[12],0.793 and 0.779 and 0.783 and 0.8 and 0.814
same,MEAN (columns 7-11),[12],0.58
same,"Creatininase Enzyme Absorbance, columns 7-11",[13],0.621 and 0.592 and 0.597 and 0.625 and 0.622
same,MEAN (columns 7-11),[13],0.40
same,"Creatininase Enzyme Absorbance, columns 7-11",[14],0.647 and 0.629 and 0.631 and 0.657 and 0.637
same,MEAN (columns 7-11),[14],0.43
same,% Bias,"Day 4, 50 ppm MIT vs no MIT, 5 mg/mL BSA",3.8%
same,% Bias,"Day 4, 50 ppm MIT vs no MIT, 25 mg/mL BSA",4.5%
same,% Bias,"Day 4, 50 ppm MIT vs no MIT, 50 mg/mL BSA",14.7%
same,MEAN,"Day 4, 50 ppm MIT, 5 mg/mL BSA",0.73
same,MEAN,"Day 4, 50 ppm MIT, 25 mg/mL BSA",0.61
same,MEAN,"Day 4, 50 ppm MIT, 50 mg/mL BSA",0.46
same,% Bias,"Day 4, 100 ppm MIT vs no MIT, 5 mg/mL BSA",2.3%
same,% Bias,"Day 4, 100 ppm MIT vs no MIT, 25 mg/mL BSA",2.7%
same,% Bias,"Day 4, 100 ppm MIT vs no MIT, 50 mg/mL BSA",14.0%
same,MEAN,"Day 4, 100 ppm MIT, 5 mg/mL BSA",0.71
same,MEAN,"Day 4, 100 ppm MIT, 25 mg/mL BSA",0.60
same,MEAN,"Day 4, 100 ppm MIT, 50 mg/mL BSA",0.49
same,"Creatininase Enzyme Absorbance, columns 7-11",[15],1.062 and 1.055 and 1.027 and 1.067 and 1.069
same,MEAN (columns 7-11),[15],0.80
same,"Creatininase Enzyme Absorbance, columns 7-11",[16],1.061 and 1.054 and 1.018 and 1.051
same,MEAN (columns 7-11),[16],0.79
same,"Creatininase Enzyme Absorbance, columns 7-11",[17],0.931 and 0.918 and 0.882 and 0.905 and 0.92
same,MEAN (columns 7-11),[17],0.65
same,"Creatininase Enzyme Absorbance, columns 7-11",[18],0.91 and 0.907 and 0.879 and 0.898 and 0.905
same,MEAN (columns 7-11),[18],0.64
same,"Creatininase Enzyme Absorbance, columns 7-11",[19],0.745 and 0.73 and 0.711 and 0.727 and 0.732
same,MEAN (columns 7-11),[19],0.47
same,"Creatininase Enzyme Absorbance, columns 7-11",[20],0.74 and 0.737 and 0.713 and 0.724
same,MEAN (columns 7-11),[20],0.47
same,% Bias,"Day 14, 50 ppm MIT vs no MIT, 5 mg/mL BSA",1.8%
same,% Bias,"Day 14, 50 ppm MIT vs no MIT, 25 mg/mL BSA",−0.5%
same,% Bias,"Day 14, 50 ppm MIT vs no MIT, 50 mg/mL BSA",−2.4%
same,MEAN,"Day 14, 50 ppm MIT, 5 mg/mL BSA",0.81
same,MEAN,"Day 14, 50 ppm MIT, 25 mg/mL BSA",0.65
same,MEAN,"Day 14, 50 ppm MIT, 50 mg/mL BSA",0.46
same,% Bias,"Day 14, 100 ppm MIT vs no MIT, 5 mg/mL BSA",0.3%
same,% Bias,"Day 14, 100 ppm MIT vs no MIT, 25 mg/mL BSA",−1.0%
same,% Bias,"Day 14, 100 ppm MIT vs no MIT, 50 mg/mL BSA",0.7%
same,MEAN,"Day 14, 100 ppm MIT, 5 mg/mL BSA",0.79
same,MEAN,"Day 14, 100 ppm MIT, 25 mg/mL BSA",0.64
same,MEAN,"Day 14, 100 ppm MIT, 50 mg/mL BSA",0.47
same,absorbance of the creatininase enzyme compared to samples containing 0 mg/mL of BSA,"days 4 and 14, 5, 25 and 50 mg/mL BSA, with MIT",increased absorbance
same,"creatininase absorbance, solutions 7-11","days 4 and 14, only BSA, no MIT",increased (or at least maintained)
